A word on the EC50: it is the midpoint of the concentration-response curve. Low values mean a more potent agent, high ones a less potent agent. Broadly, the melting point is the temperature of the solid-liquid transition. The IC50 is the midpoint of a concentration-inhibition curve. The low end stands for higher potency, the high end for lower potency.

The values that follow come from patent US7585871B2, “Phenanthridine carbonyl phenols” (Wyeth, priority 2004, dated 2009).

The target in series [1] is T1, human ERα (Homo sapiens, UniProt P03372).
T1 construct: expressed in transfected cells; host or cells: HAECT-1 cells (immortalized human aortic endothelial cells) infected with Ad5-wt-hERα adenovirus
T1 sequence (P03372 1-595): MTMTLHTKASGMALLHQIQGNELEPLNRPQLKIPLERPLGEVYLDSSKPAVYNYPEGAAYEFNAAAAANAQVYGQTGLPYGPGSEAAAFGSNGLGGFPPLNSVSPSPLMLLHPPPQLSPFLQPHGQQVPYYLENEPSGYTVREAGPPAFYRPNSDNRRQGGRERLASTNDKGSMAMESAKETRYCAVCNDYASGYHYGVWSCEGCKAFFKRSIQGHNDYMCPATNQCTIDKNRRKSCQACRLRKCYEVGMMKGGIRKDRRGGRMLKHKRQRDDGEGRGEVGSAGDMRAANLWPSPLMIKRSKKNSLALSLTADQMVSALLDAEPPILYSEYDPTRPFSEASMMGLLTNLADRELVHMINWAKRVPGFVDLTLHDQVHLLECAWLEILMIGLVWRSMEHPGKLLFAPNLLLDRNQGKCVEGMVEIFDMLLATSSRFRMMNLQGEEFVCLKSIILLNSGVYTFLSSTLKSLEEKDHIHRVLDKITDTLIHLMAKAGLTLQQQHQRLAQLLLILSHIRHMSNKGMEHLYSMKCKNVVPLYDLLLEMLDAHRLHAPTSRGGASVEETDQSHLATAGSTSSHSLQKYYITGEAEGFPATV
The series can be described thus: Creatine kinase (CK) assay in ERα infected HAECT-1 cells. The format is cell-based. To be noted: for EC50: creatine kinase in lysate of ERα infected HAECT-1 cells; for CK (% E2): efficacy relative to E2, value in parentheses after the EC50. The procedure: (§1) After four hours, cells were washed with EBM-BSA and incubated overnight in the same medium. Following overnight incubation, cells were washed with EBM-BSA and infected for 2 hours with 6 ml of a 1:10 dilution of Ad5-3x(NFκB).Luc virus (Adenovirus luciferase expression vector driven by 3 repeats of the MHC NFκb site 5′ to the thymidine kinase promoter) in EBM-BSA. After two hours, cells were washed and incubated at 34° C. for 1 hour. […] Control (no ER infection) cells were processed as above without Ad5-wt-hERα virus infection.
(§2) ERα infected HAECT-1 cells or control cells were thawed, diluted 42× in warm EBM-BSA, plated into 96-well plates at 0.1 ml/well and incubated for 4 h at 34° C. […] After 15-20 h, cells are lysed with 50 ul of Promega Cell Culture Lysis reagent for ˜5 min at room temp on shaker. After lysing, 15 ul of lysate is transferred to luminometer plates for luciferase determination. […] Creatine kinase was determined from the rate of increase in A340 following addition of 100 uL of CK assay reagent (Sigma, cat. No 47-10) to the remainder of the cell lysate.
(§3) For IC50 and EC50 calculations, mean IL-6, luciferase or CK values versus log10 of the compound concentration were fitted to a four parameter logistic equation. The IC50/EC50 value, ‘Hill slope’, upper and lower limits of the curve were iteratively estimated.

Series [2] has as its target T1, human ERα. Briefly: IL-6 luciferase (IL6-luc) assay in ERα infected HAECT-1 cells. In kind it is cell-based. To be noted: for IC50: ERα infected HAECT-1 cells, IL-1β, Ad5-IL-6(1250 bp).Luc virus, 15-20 h; for IL6-luc (% E2): efficacy relative to E2, value in parentheses after the IC50. The procedure:
as §1, §2, §3

Consider `CC1c2cc(F)ccc2-c2ccc(F)cc2N1C(=O)c1ccc(O)cc1` (racemic) [Example 42, 4-[(3,8-difluoro-6-methylphenanthridin-5(6H)-yl)carbonyl]phenol], for which the melting point was in the range of 193 to 195 °C. Moreover, on human ERα [1], a half-maximal effect (EC50) was put at 90 nM and the “CK (% E2)” value turned out to be 37%. Also, at human ERα [2], half-maximal inhibition (IC50) required 4.5 nM and the “IL6-luc (% E2)” value is recorded as 95%.
With `C[C@@H]1c2ccccc2-c2ccc(Cl)cc2N1C(=O)c1cccc(O)c1` [Example 25, 3-{[(6R)-3-chloro-6-methylphenanthridin-5(6H)-yl]carbonyl}phenol], on human ERα [1], the EC50 amounted to 141 nM and the “CK (% E2)” value turned out to be 26%. Moreover, on human ERα [2], the IC50 turned out to be 9 nM and the “IL6-luc (% E2)” value stood at 103%.
For `C[C@@H]1c2ccccc2-c2ccc(F)cc2N1C(=O)c1ccc(O)cc1` (single isomer, unassigned) [Example 37], the melting point lay in the range of 235.7 to 236.8 °C. Further, on human ERα [1], the EC50 was 28 nM and the “CK (% E2)” value came out at 20%. In addition, at human ERα [2], the concentration for half-maximal inhibition (IC50) stood at 6 nM and the “IL6-luc (% E2)” value was 114%.
On the same counts, the results for `C[C@@H]1c2ccccc2-c2ccc(F)cc2N1C(=O)c1ccc(O)cc1O` (single isomer, unassigned) [Example 40] are 184 to 187 °C, 8 nM, 20%, 1 nM and 107%.
Turning to `CC[C@@H]1c2cc(F)ccc2-c2ccccc2N1C(=O)c1cccc(O)c1` [Example 21, 3-{[(6R)-6-ethyl-8-fluorophenanthridin-5(6H)-yl]carbonyl}phenol], the melting point lay in the range of 101 to 102 °C. Moreover, the “CK (% E2) at a single concentration” value on human ERα [1] (@ 1 μM) was found to be 50% @ 1 μM. Also, at human ERα [2], half-maximal inhibition (IC50) required 40 nM and the “IL6-luc (% E2)” value is recorded as 134%.
Turning to `C[C@@H]1c2cc(F)ccc2-c2ccccc2N1C(=O)c1ccc(Cl)c(O)c1` [Example 11, 2-chloro-5-{[(6R)-8-fluoro-6-methylphenanthridin-5(6H)-yl]carbonyl}phenol], at human ERα [1], the EC50 was found to be 307 nM and the “CK (% E2)” value was −29%. Besides, on human ERα [2], the midpoint of inhibition, the IC50, lay at 271 nM and the “IL6-luc (% E2)” value was 107%.
As for `C[C@@H]1c2ccccc2-c2ccc(Cl)cc2N1C(=O)c1ccc(O)cc1` [Example 28, 4-{[(6R)-3-chloro-6-methylphenanthridin-5(6H)-yl]carbonyl}phenol], the melting point was 273.5 to 276 °C. In addition, on human ERα [1], the EC50 stood at 69 nM and the “CK (% E2)” value is 32%. For the same compound, at human ERα [2], half-maximal inhibition (IC50) was put at 6 nM and the “IL6-luc (% E2)” value turned out to be 120%.
On the same counts, the results for `CC[C@@H]1c2cc(F)ccc2-c2ccccc2N1C(=O)c1ccc(O)cc1O` [Example 22, 4-{[(6R)-6-ethyl-8-fluorophenanthridin-5(6H)-yl]carbonyl}benzene-1,3-diol] are 98 to 100 °C, 3 nM, 38%, 2 nM and 106%.
